Test results from patent US8420692B1, “Heterocyclic and carbonate derivatives of NDGA and their use as new anti-HIV and anti-cancer agents” (The Johns Hopkins University, priority 2006, dated 2013).
Where two headings read alike, the source gives them in different places. Values belong to the compound of their own block, whether it stands above or below them.

How the values were obtained:
[1] = tested on: HIV Tat-regulated transactivation; conditions: values from references 9 and 12; read-out: IC50, Tat-regulated SeAP production (reference compounds); cited from earlier work
[2] = tested on: HIV Tat-regulated transactivation; experiment: cells; assay type: cell-based; conditions: for Inhibition (%) of HIV Tat-regulated Transactivation in COS Cells: average of three experiments; for IC50: read-out: IC50, HIV Tat-regulated transactivation
Procedure: The COS cells were co-transfected with a Tat-producing plasmid and a plasmid containing the HIV LTR linked to the SeAP reporter gene. Transfected cells were treated with various concentrations of 5b P4N. After 48 h, aliquots of media were removed and analysis of SeAP activity was performed. The percent inhibition of SeAP activity by 5b P4N ? was calculated in comparison with the percent of growth inhibition of untransfected COS cells by P4N ?
The medium used for dilution of compounds and maintenance of cultures during the assay was the same as described above. Cultures were maintained in disposable tissue culture labware at 37° C. in a humidified atmosphere of CO2 (5.0%) in air. Compounds were dissolved as stock solutions in water or dimethyl sulfoxide (DMSO) at the concentration of 10 mM. The stock solutions were diluted with H2O (5a-d) or DMSO (6a,b and 7) and dilute by medium to the desired concentration by a 30-s vortex just before addition into the cell culture. Triplicate cell samples were seeded at density of ˜1.5×10^4 cell per well in Libro 24-well flat-bottom culture dishes (17-mm diameter), which were incubated for 24 h until they reached 50% confluence. The cells were cotransfected by the calcium phosphate procedure with DNA from plasmids pBC12/CMV/t2 (coding for Tat function, 0.20 μg/well) and pBC12/HIV/SeAP (0.40 μg/well). Cells and DNAs were kept in contact for 6.0 h; then the medium was aspirated and replaced by 500 μL of medium containing the test compound. The compound-treated cells were then incubated for additional 48 h. At the end of incubation, an aliquot of cell culture medium was removed and SeAP activities were analyzed by spectrametric method.^20 The sample of culture medium were heated at 65° C. for 5.0 min to inactivate endogenous phosphatases selectively (SeAP is thermal stable). The buffer solution of 2×SeAP (100 μL, 1.0 M diethanolamine, pH 9.8; 0.50 mM MgCl2; 10 mM L-homoarginine) was added to the culture medium sample (100 μL) in a 96-well flat-bottom culture dish (Corning). Then, the substrate solution ([…], 120 mM, p-nitrophenyl phosphate dissolved in 1×SeAP buffer) was dispensed into each well containing the reaction mixture. The absorbance at wavelength 405 nm specific for the hydrolysis product was read at 2.5 min intervals at 37° C. over the course of 60 min on an EL340i microplate reader (Bio-tek Instruments) with 5 s automatic shaking before each reading.
Two plasmid constructs^19 were used to test the effect of synthesized NDGA derivatives on Tat-regulated HIV transactivation as described previously.^12,13,19 The plasmid constructs included a cytomegalovirus (CMV) promoter driven tat gene and SP1 regulated HIV LTR promoter driven reporter gene (i.e., SeAP). A standard SeAP assay in the absence of drug was initially run to find out efficiency of transfection.

[3] = Stability in aqueous solution (time dependent UV spectra); assay type: physicochemical
Procedure: FIG. 1: Stability of Two NDGA Derivatives G4N and P4N(HCl salts) in Aqueous Solution. Time Dependent Changes in UV spectra showing (a) G4N is unstable and (b) meso-2,3-dimethyl-1,4-bis(3,4-[2-piperidino)ethoxyphenyl])butane (P4N) (compound 5b in Scheme 1) (day 1, 2, 8, 13, 28) is stable in Milli-Q water after 28 days at 20° C.
The new NDGA derivatives (Scheme 1) were found stable in aqueous solution; >99% of these compounds remained intact after 28 days (see FIG. 1(b)). In a sharp contrast, >96% G4N (4) decomposed in aqueous solution within 24 h (see FIG. 1(a)).

[4] = COS cells, SeAP, mean of triplicate determinations
[5] = Human immunodeficiency virus 1, COS, read-out: Inhibition (%) of HIV Tat-regulated Transactivation in COS Cells

Structure (SMILES): COc1ccc(C[C@@H](C)[C@@H](C)Cc2ccc(OC)c(OC)c2)cc1OC [Compound M4N, (tetra-O-methyl)nordihydroguaiaretic acid]
IC50 [1]: 11.1 µM

Structure (SMILES): COc1cc(C[C@H](C)[C@H](C)Cc2ccc(O)c(O)c2)ccc1O [Mal.4]
IC50 [1]: 25 µM

Structure (SMILES): C[C@H](Cc1ccc(OCCCN2CCOCC2)c(OCCCN2CCOCC2)c1)[C@@H](C)Cc1ccc(OCCCN2CCOCC2)c(OCCCN2CCOCC2)c1.Cl.Cl.Cl.Cl [Compound 5d, meso-2,3-Dimethyl-1,4-bis(3,4-[3-(morpholino)propoxyphenyl])butane Tetrakishydrochloride Salt]
Inhibition (%) of HIV Tat-regulated Transactivation in COS Cells ([2]; 0.10 μM): 15.0% | Inhibition (%) of HIV Tat-regulated Transactivation in COS Cells ([2]; 0.25 μM): 15.9% | Inhibition (%) of HIV Tat-regulated Transactivation in COS Cells ([2]; 0.50 μM): 10.6% | Inhibition (%) of HIV Tat-regulated Transactivation in COS Cells ([2]; 1.0 μM): 9.5% | Inhibition (%) of HIV Tat-regulated Transactivation in COS Cells ([2]; 2.5 μM): 52.7% | Inhibition (%) of HIV Tat-regulated Transactivation in COS Cells ([2]; 5.0 μM): 89.5% | Inhibition (%) of HIV Tat-regulated Transactivation in COS Cells ([2]; 10 μM): 96.0% | Inhibition (%) of HIV Tat-regulated Transactivation in COS Cells ([2]; 20 μM): 99.9% | Inhibition (%) of HIV Tat-regulated Transactivation in COS Cells ([2]; 40 μM): 99.8% | Inhibition (%) of HIV Tat-regulated Transactivation in COS Cells ([2]; 80 μM): 100% | Inhibition (%) of HIV Tat-regulated Transactivation in COS Cells ([2]; 100 μM): 89.5% | IC50 [2, 4]: 2.41 µM

Structure (SMILES): C[C@H](Cc1ccc(OCCN2CCCC2)c(OCCN2CCCC2)c1)[C@@H](C)Cc1ccc(OCCN2CCCC2)c(OCCN2CCCC2)c1.Cl.Cl.Cl.Cl [Compound 5a, meso-2,3-Dimethyl-1,4-bis(3,4-[2-(pyrrolidino)ethoxyphenyl])butane Tetrakishydrochloride Salt]
Inhibition (%) of HIV Tat-regulated Transactivation in COS Cells ([2]; 0.10 μM): 18.1% | Inhibition (%) of HIV Tat-regulated Transactivation in COS Cells ([2]; 0.25 μM): 15.4% | Inhibition (%) of HIV Tat-regulated Transactivation in COS Cells ([2]; 0.50 μM): 27.2% | Inhibition (%) of HIV Tat-regulated Transactivation in COS Cells ([2]; 1.0 μM): 19.6% | Inhibition (%) of HIV Tat-regulated Transactivation in COS Cells ([2]; 2.5 μM): 31.0% | Inhibition (%) of HIV Tat-regulated Transactivation in COS Cells ([2]; 5.0 μM): 14.1% | Inhibition (%) of HIV Tat-regulated Transactivation in COS Cells ([2]; 10 μM): 26.3% | Inhibition (%) of HIV Tat-regulated Transactivation in COS Cells ([2]; 20 μM): 59.1% | Inhibition (%) of HIV Tat-regulated Transactivation in COS Cells ([2]; 40 μM): 94.8% | Inhibition (%) of HIV Tat-regulated Transactivation in COS Cells ([2]; 80 μM): 97.1% | Inhibition (%) of HIV Tat-regulated Transactivation in COS Cells ([2]; 100 μM): 100% | IC50 [2, 4]: 17.2 µM

Structure (SMILES): C[C@H](Cc1ccc(OCCN2CCOCC2)c(OCCN2CCOCC2)c1)[C@@H](C)Cc1ccc(OCCN2CCOCC2)c(OCCN2CCOCC2)c1.Cl.Cl.Cl.Cl [Compound 5c, meso-2,3-Dimethyl-1,4-bis(3,4-[2-(morpholino)ethoxyphenyl])butane Tetrakishydrochloride Salt]
Inhibition (%) of HIV Tat-regulated Transactivation in COS Cells ([2]; 0.10 μM): 5.0% | Inhibition (%) of HIV Tat-regulated Transactivation in COS Cells ([2]; 0.25 μM): 16.5% | Inhibition (%) of HIV Tat-regulated Transactivation in COS Cells ([2]; 0.50 μM): 9.9% | Inhibition (%) of HIV Tat-regulated Transactivation in COS Cells ([2]; 1.0 μM): 8.1% | Inhibition (%) of HIV Tat-regulated Transactivation in COS Cells ([2]; 2.5 μM): 4.6% | Inhibition (%) of HIV Tat-regulated Transactivation in COS Cells ([2]; 5.0 μM): 13.3% | Inhibition (%) of HIV Tat-regulated Transactivation in COS Cells ([2]; 10 μM): 25.4% | Inhibition (%) of HIV Tat-regulated Transactivation in COS Cells ([2]; 20 μM): 58.9% | Inhibition (%) of HIV Tat-regulated Transactivation in COS Cells ([2]; 40 μM): 86.0% | Inhibition (%) of HIV Tat-regulated Transactivation in COS Cells ([2]; 80 μM): 96.8% | Inhibition (%) of HIV Tat-regulated Transactivation in COS Cells ([2]; 100 μM): 100% | IC50 [2, 4]: 17.3 µM

Structure (SMILES): C[C@H](Cc1ccc2oc(=O)oc2c1)[C@@H](C)Cc1ccc2oc(=O)oc2c1 [Compound 7, meso-2,3-Dimethyl-1,4-bis(benzo[d][1,3]-dioxol-2-one)butane]
melting point: 172.6 to 173.4 °C | IC50 ([2]; Human immunodeficiency virus 1, COS): 8.54 µM | inhibition at 0.1 µM [2, 5]: 7.5% | inhibition at 0.25 µM [2, 5]: 18.1% | inhibition at 0.5 µM [2, 5]: 4.2% | inhibition at 1 µM [2, 5]: 5.9% | inhibition at 2.5 µM [2, 5]: 23.7% | inhibition at 5 µM [2, 5]: 47.1% | inhibition at 10 µM [2, 5]: 51.2% | inhibition at 20 µM [2, 5]: 68.8% | inhibition at 40 µM [2, 5]: 85.7% | inhibition at 80 µM [2, 5]: 96.3% | inhibition at 100 µM [2, 5]: 91.6%

Structure (SMILES): C[C@H](Cc1ccc(O)c(O)c1)[C@@H](C)Cc1ccc(O)c(O)c1 [NDGA, Nordihydroguaiaretic acid]
IC50 [1]: 20 µM

Structure (SMILES): C[C@H](Cc1ccc(OC(=O)N2CCCCC2)c(OC(=O)N2CCCCC2)c1)[C@@H](C)Cc1ccc(OC(=O)N2CCCCC2)c(OC(=O)N2CCCCC2)c1 [Compound 6a, meso-2,3-Dimethyl-1,4-bis[3,4-(phenylpiperidine-1-carboxylate)]butane]
Inhibition (%) of HIV Tat-regulated Transactivation in COS Cells ([2]; 0.10 μM): 0% | Inhibition (%) of HIV Tat-regulated Transactivation in COS Cells ([2]; 0.25 μM): 3.5% | Inhibition (%) of HIV Tat-regulated Transactivation in COS Cells ([2]; 0.50 μM): 5.8% | Inhibition (%) of HIV Tat-regulated Transactivation in COS Cells ([2]; 1.0 μM): 11.7% | Inhibition (%) of HIV Tat-regulated Transactivation in COS Cells ([2]; 2.5 μM): 46.2% | Inhibition (%) of HIV Tat-regulated Transactivation in COS Cells ([2]; 5.0 μM): 78.6% | Inhibition (%) of HIV Tat-regulated Transactivation in COS Cells ([2]; 10 μM): 84.0% | Inhibition (%) of HIV Tat-regulated Transactivation in COS Cells ([2]; 20 μM): 86.1% | Inhibition (%) of HIV Tat-regulated Transactivation in COS Cells ([2]; 40 μM): 83.8% | Inhibition (%) of HIV Tat-regulated Transactivation in COS Cells ([2]; 80 μM): 90.1% | Inhibition (%) of HIV Tat-regulated Transactivation in COS Cells ([2]; 100 μM): 89.8% | IC50 [2, 4]: 2.79 µM

Structure (SMILES): COC(=O)Oc1ccc(C[C@@H](C)[C@@H](C)Cc2ccc(OC(=O)OC)c(OC(=O)OC)c2)cc1OC(=O)OC [Compound 6b, meso-2,3-Dimethyl-1,4-bis[3,4-(methylphenyl carbonate)]butane]
Inhibition (%) of HIV Tat-regulated Transactivation in COS Cells ([2]; 0.10 μM): 9.8% | Inhibition (%) of HIV Tat-regulated Transactivation in COS Cells ([2]; 0.25 μM): 12.3% | Inhibition (%) of HIV Tat-regulated Transactivation in COS Cells ([2]; 0.50 μM): 16.0% | Inhibition (%) of HIV Tat-regulated Transactivation in COS Cells ([2]; 1.0 μM): 13.1% | Inhibition (%) of HIV Tat-regulated Transactivation in COS Cells ([2]; 2.5 μM): 15.1% | Inhibition (%) of HIV Tat-regulated Transactivation in COS Cells ([2]; 5.0 μM): 38,0% | Inhibition (%) of HIV Tat-regulated Transactivation in COS Cells ([2]; 10 μM): 51,6% | Inhibition (%) of HIV Tat-regulated Transactivation in COS Cells ([2]; 20 μM): 58.4% | Inhibition (%) of HIV Tat-regulated Transactivation in COS Cells ([2]; 40 μM): 70.8% | Inhibition (%) of HIV Tat-regulated Transactivation in COS Cells ([2]; 80 μM): 93.4% | Inhibition (%) of HIV Tat-regulated Transactivation in COS Cells ([2]; 100 μM): 88.9% | IC50 [2, 4]: 9.41 µM

Stability in Milli-Q water (UV spectra) ([3]; HCl salts, 28 days at 20° C., FIG. 1): unstable | Compound decomposed in aqueous solution ([3]; within 24 h): > 96%
Structure (SMILES): C[C@H](Cc1ccc(OC(=O)CN(C)C)c(OC(=O)CN(C)C)c1)[C@@H](C)Cc1ccc(OC(=O)CN(C)C)c(OC(=O)CN(C)C)c1 [Compound G4N, (tetra-O-dimethylglycyl)nordihydroguaiaretic acid]
